Common to all, as to format: cell-based, human
For test [1], the system named is EGFR. The test can be described thus: Western blotting for expression of EGFR (test (b)). The conditions noted are these: for Test (b) EGFR: at least 50% decrease in level of or 50% downregulation of expression: positive in 184B5, 184B5/HER, 1483, LNCaP, HeLa and CaSki cells, 24 h, Western blot. An excerpt:
We turn now to the criterion (b), that is at least 50% decrease in level of or 50% downregulation of expression of Class I family of receptors tyrosine kinase. The Class I family of receptors tyrosine kinase is described in Reese, M. D., et al Stem Cells 15, pages 1-8 (1997), the whole of which in incorporated herein by reference. Members of the family include HER-2/neu, HER-3, HER-4 and epidermal growth factor receptor (EGFR) and are single-chain membrane spanning proteins which have significant homology to one another including about 80% amino acid identity in the tyrosine kinase domain.
Epidermal growth factor receptor (EGFR) is a 170 kDA glycoprotein. […] After ligand binding, EGFR undergoes dimerization which is essential for activation of its enzymatic kinase activity. EGFR is thus autophospliorylated and transphosphorylated on tyrosine residues, and the phosphorylated residues become the site of association of effector proteins. Overexpressed EGFR is intimately involved in modulating the epidermal growth factor growth signal and is considered as likely to confer a growth advantage. This conclusion is supported by the observation that tumor growth in nude mice is inhibited by treatment with anti-EGFR antibodies and tumorigenicity in nude mice is inhibited through blockage of the tyrosine kinase activity of the receptor.
To evaluate the expression of Class I family of receptors tyrosine kinase (EGFR, HER-2/neu), Western blotting can be performed. Antibodies for EGFR and HER-2/neu can be obtained from Santa Cruz Biotechnology, Inc.
Expression of EGFR (performed in 184B5, 184B5/HER, 1483, LNCaP, HeLa and CaSki cells)and HER-2/neu (performed in 184B5/HER, SKBR3 and BT474 cells) was assessed in cells after treatment with test compound for 24 hours. 5×10^6 cells were used for the treatment. Western blotting technique was used to assess the expression levels in cells treated with the test compound compared to vehicle alone. Western blotting was carried out as follows:
Cell lysates were prepared by treating cells with lysis buffer (150 mM NaCl, 100 mM Tris (pH 8.0), 1% Tween 20, 50 mM diethyldithiocarbamate, 1 mM EDTA, 1 mM phenylmethylsulfonyl fluoride, 10 μg/ml aprotinin, 10 μg/ml trypsin inhibitor and 10 μg/ml leupeptin). Lysates were sonicated for 20 s on ice and centrifuged at 10,000×g for 10 min to sediment the particulate material. The protein concentration of the supernatant was measured by the method of Lowry, O. H., et al., J. Biol. Chem. 193, 265-275 (195 1). SDS/PAGE was performed under reducing conditions on 10% polyacrylamide gels as described by Laemmli, U.K., Nature (Lond.) 227, 680-685 (1970). The resolved proteins were transferred onto nitrocellulose sheets as detailed by Towbin, H. et al., Proc. Natl. Acad. Sci. USA 76, 4350-4354 (1979). The nitrocellulose membrane was then incubated with anti-EGFR antiserum or anti-HER-2/neu antiserum. Secondary antibody to IgG conjugated to horseradish peroxidase was used. The various antisera were purchased from Santa Cruz Biotechnology, Inc., CA. The blots were probed with the Renaissance Western blot detection system according to the manufacturer's instructions (PerkinElmer Life Sciences, Boston, Mass.).

The subject of test [2] is Nrf-2. The test can be described thus: Western and Northern blotting for expression of Nrf-2 (test (g)). The conditions noted are these: positive in 184B5, 184B5/HER, HCA7, HCT116, SKBR3, BT474 and CaSki cells. Here is the method: We turn now to criterion (g), i.e. at least 50% increase in expression of Nrf-2. […] 13, 2001).
Western blotting and Northern blotting techniques were used to evaluate the expression of Nrf-2. The expression of Nrf-2 was evaluated in HCA7, HCT116, SKBR3, CaSki, 184B5/HER, 184B5 and BT474 cells. 5×10^6cells were used to treat either vehicle alone or the test compound. The Western blotting analysis was performed as described above except anti-Nrf-2 antibody was used to probe the blot. The antibody was obtained from Santa Cruz Biotechnology, Inc. CA. Northern blotting for Nrf-2 was performed as described above and cDNA for Nrf-2 as described in Gong, P., et al., J.Biol Chem 20; 276:27018-27025 (2001) was used as a probe.

The subject of test [3] is cyclin D1. The test can be described thus: Western blotting for expression of cyclin D1 (test (c)). The conditions noted are these: for Test (c) at least 50% downregulation of expression of cyclin D1: positive in 184B5, 184B5/HER cells, 24 h, Western blot. Here is the method: Cyclin D1 is a protein that is important in regulating cell proliferation and is described in Ortega, S., et al, Biochimica et Biophysica Acta 1602, 73-87, (2002), the whole of which is incorporated by reference. […] Effects on expression of cyclin D1 was investigated in 184B5, 184B5/HER, HCA7, HCT116, SKBR3 and BT474 cells. The expression was assessed in cells after treatment with test compound or vehicle using 5×10^4 cells for 24 hours. Western blotting technique was used as follows to assess the expression levels of cyclin D1 in cells treated with the test compound and compared to levels in cells treated with vehicle alone. Cell lysates were prepared by treating cells with lysis buffer as described above. […] The resolved proteins were transferred onto nitrocellulose sheets. The nitrocellulose membrane was then incubated with anti-cyclin D1 antiserum. Secondary antibody to IgG conjugated to horseradish peroxidase was used. The various antisera were purchased from Santa Cruz Biotechnology, Inc., CA. The blots were probed with the Renaissance Western blot detection system according to the manufacturer's instructions (PerkinElmer Life Sciences, Boston, Mass.).
For orientation: In western blotting, separated proteins are transferred to a membrane and probed.

Setting [4] is: 184B5 cells, 24 hours, Western blotting.

The results in this text go back to US20050031537A1, “Multifunctional COX-2 inhibitors” (priority 2002, published 2005).

In the case of `COc1ccc(OC(=O)Cc2c(C)n(C(=O)c3ccc(Cl)cc3)c3ccc(OC)cc23)cc1` [Indomethacin Analog 3, 1-(p-chlorobenzoyl)-5-methoxy-2-methyl-1H-indole-3-acetic acid, 4-methoxyphenyl ester], the “Test (b) EGFR: at least 50% decrease in level of or 50% downregulation of expression” value (shortened to “Test (b) EGFR: at least 50% decrease”) in test [1] was “+ (A plus sign in the table indicates a positive result, that is meeting the test for each cell line as indicated above as providing a positive result)”. Besides, the “Test (g) at least 50% increase in expression of Nrf-2” value (“Test (g) at least 50% increase” below) in test [2] is on record as “+ (A plus sign in the table indicates a positive result, that is meeting the test for each cell line as indicated above as providing a positive result)”.
For `CS(=O)(=O)c1ccc(-n2nc(C(F)(F)F)cc2-c2ccc(F)cc2)cc1` [SC-58125, 4-[5-(4-fluorophenyl)-3-(trifluoromethyl)-1H-pyrazol-1-yl]benzenemethylsulfone], the “Test (b) EGFR: at least 50% decrease” value in test [1] was “+ (A plus sign in the table indicates a positive result, that is meeting the test for each cell line as indicated above as providing a positive result)”. In addition, in test [3], the “Test (c) at least 50% downregulation of expression of cyclin D1” value (“Test (c) at least 50% downregulation” below) is “+ (A plus sign in the table indicates a positive result, that is meeting the test for each cell line as indicated above as providing a positive result)”. Moreover, in test [2], the “Test (g) at least 50% increase” value is “+ (A plus sign in the table indicates a positive result, that is meeting the test for each cell line as indicated above as providing a positive result)”.
Turning to `NS(=O)(=O)c1ccc(-n2nc(C(F)(F)F)cc2-c2ccc(Cl)cc2)cc1` [SC-236, 4-[5-(4-chlorophenyl)-3-(trifluoromethyl)-1H-pyrazol-1-yl]benzenesulfonamide], the “decrease in level of EGFR” value in test [1] (setting [4]) is given as “more than 50%”. Also, the “Test (b) EGFR: at least 50% decrease” value in test [1] is “+ (A plus sign in the table indicates a positive result, that is meeting the test for each cell line as indicated above as providing a positive result)”. Further, the “decrease in level of cyclin D1” value in test [3] (setting [4]) is “more than 50%”. Further, in test [3], the “Test (c) at least 50% downregulation” value is “+ (A plus sign in the table indicates a positive result, that is meeting the test for each cell line as indicated above as providing a positive result)”. Further, in test [2], the “Test (g) at least 50% increase” value is “+ (A plus sign in the table indicates a positive result, that is meeting the test for each cell line as indicated above as providing a positive result)”.
As to `Cc1ccc(-c2cc(C(F)(F)F)nn2-c2ccc(S(N)(=O)=O)cc2)cc1` [Celecoxib], the “Test (b) EGFR: at least 50% decrease” value in test [1] is given as “+ (A plus sign in the table indicates a positive result, that is meeting the test for each cell line as indicated above as providing a positive result)”. Further, in test [3], the “Test (c) at least 50% downregulation” value was “+ (A plus sign in the table indicates a positive result, that is meeting the test for each cell line as indicated above as providing a positive result)”. The “Test (g) at least 50% increase” value in test [2] is reported as “+ (A plus sign in the table indicates a positive result, that is meeting the test for each cell line as indicated above as providing a positive result)”.
Regarding `CCCCCCCOC(=O)Cc1c(C)n(C(=O)c2ccc(Cl)cc2)c2ccc(OC)cc12` [Indomethacin Analog 1, indomethacin heptyl ester], the “Test (b) EGFR: at least 50% decrease” value in test [1] is recorded as “+ (A plus sign in the table indicates a positive result, that is meeting the test for each cell line as indicated above as providing a positive result)”. Besides, the “Test (g) at least 50% increase” value in test [2] is on record as “+ (A plus sign in the table indicates a positive result, that is meeting the test for each cell line as indicated above as providing a positive result)”.
